Format in all cases: in vivo, human
The subject of series [1] is person diagnosed with moderate Ulcerative colitis. As to the kind of experiment: Single-patient treatment examples (Examples 2-5): person diagnosed with moderate ulcerative colitis. From the text: A 70 kg person diagnosed with moderate Ulcerative colitis is prescribed a pharmaceutical oral composition comprising 1.2 g of olsalazine (mol. wt. 302.24), a mesalamine dimer, two tablets to be taken twice daily for a total of 4.8 g/day of the 5-ASA dimer (5-ASA mol. wt.=153.14). The patient takes two tablets of the pharmaceutical in the morning and two tablets in the evening such that about 4.8 g/day of 5-ASA is delivered. The Physician's Global Assessment (PGA) score improves in comparison to baseline and rectal bleeding reduces. A 72 kg person diagnosed with moderate Ulcerative colitis is prescribed a pharmaceutical composition comprising four 1.2 g mesalamine delayed-release tablets, to be taken once daily. The four tablets are taken in the morning so that 4.8 g/day of 5-ASA is delivered. The Physician's Global Assessment (PGA) score improves in comparison to baseline and rectal bleeding reduces. A 75 kg person diagnosed with moderate Ulcerative colitis is prescribed a pharmaceutical oral composition comprising two 1.2 g balsalazide delayed-release tablets, to be taken three times daily for a total of 7.2 g/day of balsalazide; this regimen is calculated to deliver about 3.1 g of 5-ASA. The Physician's Global Assessment (PGA) score improves in comparison to baseline and rectal bleeding reduces. A 71 kg person diagnosed with moderate Ulcerative colitis is prescribed a pharmaceutical composition comprising a rectal mesalamine foam. The foam is administered three times per day (morning, afternoon, and evening) such that 1 g of mesalamine is administered at each interval for a total of 3 g of mesalamine per day. The Physician's Global Assessment (PGA) score improves in comparison to baseline and rectal bleeding is reduced.

Series [2] has as its system male patients with moderate ulcerative colitis. As to the kind of experiment: Study 1 and Study 2 combined: subgroup analyses and safety. As to the method: Data from patients with mild to moderate Ulcerative colitis (UC) are combined and analyzed from two phase III, multi-center, randomized, double-blind, controlled clinical trials of identical design assessing the safety and clinical efficacy of the increased dosage of 5-ASA. The two clinical trials are referred to herein as “Study 1” and “Study 2.” Pre-specified subgroup analyses for fifty-four demographic and baseline characteristics are performed in patients with moderately active disease (PGA score=2) to assess consistency of primary endpoint. […] To further evaluate the robustness of the results in men with moderate disease, whisker plots (i.e., point estimate and 95% confidence interval for the difference between the 2.4 g/day group and the 4.8 g/day group) for various subgroups defined on the basis of baseline characteristics (e.g., disease severity, demographic parameters) are prepared. […] FIG. 1 (a) is a subgroup analysis of treatment outcome at week 6 for male patients with moderate disease for Study 1 and Study 2 combined; (b) is a subgroup analysis of treatment outcome at week 6 for female patients with moderate disease for Study 1 and Study 2 combined. FIG. 2 (a) is a subgroup analysis of treatment outcome at week 6 for male patients with moderate disease for Study 1 and Study 2 combined; (b) is a subgroup analysis of treatment outcome at week 6 for female patients with moderate disease for Study 1 and Study 2 combined. FIG. 3 (a) is a subgroup analysis of treatment outcome at week 6 for male patients with moderate disease for Study 1 and Study 2 combined; (b) is a subgroup analysis of treatment outcome at week 6 for female patients with moderate disease for Study 1 and Study 2 combined. […]

The test system is the same in series [3]. Description: Study 2: phase III, multi-center, randomized, double-blind, controlled clinical trial, overall improvement (treatment success) at week 6. The following applies: moderate disease. The procedure:
(§1) Administration of mesalamine at 4.8 g/day via three daily doses consisting of two, 800 mg dosage tablets provides a clear efficacy benefit over 2.4 g/day of mesalamine given as three daily doses consisting of two, 400 mg dosage tablets and addresses an unmet medical need for men with moderate ulcerative colitis. […] Data from patients with mild to moderate Ulcerative colitis (UC) are combined and analyzed from two phase III, multi-center, randomized, double-blind, controlled clinical trials of identical design assessing the safety and clinical efficacy of the increased dosage of 5-ASA. The two clinical trials are referred to herein as “Study 1” and “Study 2.” The primary endpoint is the percentage of moderate UC patients achieving overall improvement (i.e., treatment success) from baseline at week 6. This is defined as: (1) complete response (remission); complete resolution of signs and symptoms (stool frequency, rectal bleeding, Patient Functional Assessment (PFA) and sigmoidoscopy score) and a Physician's Global Assessment (PGA) of 0; or (2) partial response; improvement from baseline in the PGA score and improvement in at least one clinical assessment (stool frequency, rectal bleeding, PFA or sigmoidoscopy score) and no worsening in any of the other clinical assessments. […]

Series [4] shares this test system. As to the kind of experiment: Study 1: phase III, multi-center, randomized, double-blind, controlled clinical trial, overall improvement (treatment success) at week 6. The following applies: moderate disease. As to the method: as §1
Series [5] has the same test system. Description: Bayesian analysis of success rate in men with moderate disease. The procedure:
In addition, a Bayesian analysis is conducted to calculate the probability that treatment with the 4.8 g/day dose in men results in a higher success rate than treatment with the 2.4 g/day dose. This type of analysis considers data from any previous studies conducted using either of the two dose levels. Success rates from male patients with moderate disease at baseline from three previous mesalamine studies are used to estimate the prior distributions for the 2.4 g/day dose and the 4.8 g/day dose. Using these prior distributions and Bayes analyses, the “posterior distribution” is calculated for each dose level based on the data obtained from […].

The mark [6] stands for this setting: Example 4, oral, two 1.2 g delayed-release tablets three times daily, 7.2 g/day (about 3.1 g 5-ASA), 75 kg person.
The mark [7] stands for this setting: Example 3, four 1.2 g delayed-release tablets once daily, 4.8 g/day, 72 kg person.

These results are taken from patent publication US20100048519A1, “METHODS OF TREATMENT FOR ULCERATIVE COLITIS USING AMINOSALICYLATE” (priority 2006, published 2010).

Take `O=C(O)CCNC(=O)c1ccc(/N=N/c2ccc(O)c(C(=O)O)c2)cc1` [balsalazide, (E)-5-[[4-[[(2-carboxyethyl)amino]carbonyl]phenyl]azo]-2-hydroxybenzoic acid]: in series [1] (setting [6]), the “Physician's Global Assessment (PGA) score in comparison to baseline” value (“Physician's Global Assessment” for short) is “improves” and the Rectal bleeding result is listed as “reduces”.
For `Nc1ccc(O)c(C(=O)O)c1` [mesalamine, 5-amino-2-hydroxybenzoic acid], in series [2] (4.8 g/day (800 mg tablet) vs 2.4 g/day (400 mg tablet), oral delayed-release), the “Safety profile of 4.8 g/day regimen versus 2.4 g/day regimen” value is given as “comparable”. In addition, the “Difference between 4.8 g/day group and 2.4 g/day group across pre-specified subgroups” value in series [2] (males with moderate disease, combined population, 51 of 54 subgroups) is given as “consistently superior to the 2.4 g/day group”. Further, the “Observed differences in success rate between treatment groups (4.8 vs 2.4 g/day)” value in series [2] (men with moderate disease, both studies) is listed as “approximately 25%”. For the same compound, the “Difference in Proportions (4.8 g/day vs 2.4 g/day)” value in series [3] (Primary Analysis) is listed as 27.5%; in series [3] (Set-to-Failure analysis), 24.8%; in series [4] (Primary Analysis), 25.5%; in series [4] (Set-to-Failure analysis), 27.3%. Also, the “Physician's Global Assessment” value in series [1] (setting [7]) is “improves”. Moreover, the Rectal bleeding result in series [1] (setting [7]) is given as “reduces”. The “Probability of a successful treatment outcome (Bayes analysis)” value in series [5] (2.4 g/day dose, 95% credible interval 35.7%, 58.9%) is reported as 47.2%; in series [5] (4.8 g/day dose, 95% credible interval 64.9%, 83.5%), 74.7%. Besides, the “Probability that 4.8 g/day dose results in a higher success rate than 2.4 g/day dose” value in series [5] (Bayes analysis) is 99.97%.
On to `O=C(O)c1cc(N=Nc2ccc(O)c(C(=O)O)c2)ccc1O` [olsalazine, 3,3′-dicarboxy-4,4′-dihydroxyazobenzene], for which the “Physician's Global Assessment” value in series [1] (Example 2, oral, two 1.2 g tablets twice daily, 4.8 g/day, 70 kg person) is given as “improves”.
